Here are results for 19 molecules from patent publication US20260138961A1, “MODULATORS OF MITOCHONDRIAL DNA REPLICATION” (Pretzel Therapeutics, Inc., priority 2022, published 2026).

This test concerns the target T1, POLγA:A467T (Homo sapiens, UniProt P54098, A467T).
T1 sequence (P54098 1-1239 A467T): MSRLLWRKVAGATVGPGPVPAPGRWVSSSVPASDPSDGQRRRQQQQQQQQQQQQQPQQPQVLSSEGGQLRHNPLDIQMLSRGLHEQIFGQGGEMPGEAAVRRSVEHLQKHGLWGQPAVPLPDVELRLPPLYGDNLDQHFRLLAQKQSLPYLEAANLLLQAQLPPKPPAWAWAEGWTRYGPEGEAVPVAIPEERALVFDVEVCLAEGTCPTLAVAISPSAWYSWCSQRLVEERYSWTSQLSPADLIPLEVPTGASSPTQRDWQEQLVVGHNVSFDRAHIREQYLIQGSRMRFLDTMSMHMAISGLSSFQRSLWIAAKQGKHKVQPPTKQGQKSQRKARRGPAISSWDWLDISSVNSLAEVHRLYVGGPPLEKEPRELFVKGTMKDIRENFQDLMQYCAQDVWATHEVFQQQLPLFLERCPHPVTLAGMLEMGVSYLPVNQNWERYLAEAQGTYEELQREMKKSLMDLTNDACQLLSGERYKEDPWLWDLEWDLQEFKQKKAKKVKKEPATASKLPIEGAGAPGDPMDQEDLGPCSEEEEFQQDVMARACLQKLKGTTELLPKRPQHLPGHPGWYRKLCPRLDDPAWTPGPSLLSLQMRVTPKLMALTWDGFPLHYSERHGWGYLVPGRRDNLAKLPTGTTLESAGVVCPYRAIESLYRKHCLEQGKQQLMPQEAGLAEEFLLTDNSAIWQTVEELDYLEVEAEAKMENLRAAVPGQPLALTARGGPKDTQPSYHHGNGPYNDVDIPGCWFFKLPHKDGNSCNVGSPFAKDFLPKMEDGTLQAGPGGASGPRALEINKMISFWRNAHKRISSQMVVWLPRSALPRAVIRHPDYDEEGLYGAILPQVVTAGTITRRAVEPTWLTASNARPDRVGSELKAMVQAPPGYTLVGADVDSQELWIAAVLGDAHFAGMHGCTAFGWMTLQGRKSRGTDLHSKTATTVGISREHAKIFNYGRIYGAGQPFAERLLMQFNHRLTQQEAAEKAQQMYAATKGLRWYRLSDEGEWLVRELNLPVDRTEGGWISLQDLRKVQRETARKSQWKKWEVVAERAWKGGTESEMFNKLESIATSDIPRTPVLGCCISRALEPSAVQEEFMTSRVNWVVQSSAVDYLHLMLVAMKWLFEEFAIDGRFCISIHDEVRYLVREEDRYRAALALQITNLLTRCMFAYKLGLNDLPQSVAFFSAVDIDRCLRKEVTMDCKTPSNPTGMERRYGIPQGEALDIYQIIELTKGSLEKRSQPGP
T1 sequence (Q9UHN1 1-485 partner): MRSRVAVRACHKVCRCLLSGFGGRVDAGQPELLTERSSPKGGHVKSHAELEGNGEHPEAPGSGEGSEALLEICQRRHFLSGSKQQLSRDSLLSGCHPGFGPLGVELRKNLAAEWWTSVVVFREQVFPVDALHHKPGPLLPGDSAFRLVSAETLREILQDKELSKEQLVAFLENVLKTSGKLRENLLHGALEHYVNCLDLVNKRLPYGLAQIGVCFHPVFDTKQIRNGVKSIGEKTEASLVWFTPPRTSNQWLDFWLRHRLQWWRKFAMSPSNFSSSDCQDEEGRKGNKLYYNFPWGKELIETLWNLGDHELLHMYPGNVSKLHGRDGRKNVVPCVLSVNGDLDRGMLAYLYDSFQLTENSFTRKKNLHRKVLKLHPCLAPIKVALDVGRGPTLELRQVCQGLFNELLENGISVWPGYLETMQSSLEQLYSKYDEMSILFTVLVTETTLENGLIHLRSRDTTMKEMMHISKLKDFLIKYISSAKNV
Put plainly: DNA polymerization assay, POLγA:A467T mutant. The test is classed as biochemical. The following applies: stimulation of polymerase activity, primed M13mp18 ssDNA, 37° C. 2 hours; read-out: A467T AC50.
For `Cc1nc2cc(NS(=O)(=O)c3cc(C)c(Cl)cc3C)ccc2o1` [Example 75, 4-chloro-2,5-dimethyl-N-(2-methylbenzo[d]oxazol-5-yl)benzenesulfonamide], the AC50 was over 100 µM.
In the case of `Cc1cc(S(=O)(=O)Nc2cccc(-c3ncc(CO)s3)c2)c(C)cc1Cl` [Example 89, 4-chloro-N-(3-(5-(hydroxymethyl)thiazol-2-yl)phenyl)-2,5-dimethylbenzenesulfonamide], the AC50 came out at 8 µM.
`Cc1cc(S(=O)(=O)Nc2ccc(-c3ncc(CN(C)C)s3)cc2)c(C)cc1Cl` [Example 86, 4-chloro-N-(4-(5-((dimethylamino)methyl)thiazol-2-yl)phenyl)-2,5-dimethylbenzenesulfonamide]: the AC50 is over 100 µM.
For `Cc1cnc(-c2ccc(NS(=O)(=O)c3cc(C)c(Cl)cc3C)cc2)s1` [Example 83, 4-chloro-2,5-dimethyl-N-(4-(5-methylthiazol-2-yl)phenyl)benzenesulfonamide], the AC50 was over 100 µM.
Consider `Cc1cc(S(=O)(=O)Nc2cc(-c3ccccc3)no2)c(C)cc1Cl` [Example 84, 4-chloro-2,5-dimethyl-N-(3-phenylisoxazol-5-yl)benzenesulfonamide], for which the AC50 was over 100 µM.
As for `COC(=O)c1cnc(-c2cccc(NS(=O)(=O)c3cc(C)c(Cl)cc3C)c2)s1` [Example 88, methyl 2-(3-((4-chloro-2,5-dimethylphenyl)sulfonamido)phenyl) thiazole-5-carboxylate], the AC50 is over 100 µM.
On to `Cc1cc(S(=O)(=O)NC2CCOc3c(Cl)cccc32)c(C)cc1Cl` (stereo not shown) [Example 82, 4-chloro-N-(8-chlorochroman-4-yl)-2,5-dimethylbenzenesulfonamide], for which the AC50 is over 100 µM.
Consider `Cc1cc(S(=O)(=O)Nc2cccc(C(=O)N3CCCN(C(=O)C(C)C)CC3)c2)c(C)cc1Cl` [Example 91, 4-chloro-N-(3-(4-isobutyryl-1,4-diazepane-1-carbonyl)phenyl)-2,5-dimethylbenzenesulfonamide], for which the AC50 was over 100 µM.
For the molecule `Cc1cc(S(=O)(=O)Nc2ccc3nc(-c4ccccc4)sc3c2)c(C)cc1Cl` [Example 74, 4-chloro-2,5-dimethyl-N-(2-phenylbenzo[d]thiazol-6-yl)benzenesulfonamide], the AC50 was over 100 µM.
For the molecule `Cc1cc(S(=O)(=O)Nc2cccc(-c3ncc(C4CC4)s3)c2)c(C)cc1Cl` [Example 76, 4-chloro-N-(3-(5-cyclopropylthiazol-2-yl)phenyl)-2,5-dimethylbenzenesulfonamide], the half-maximal activity concentration (AC50) was found to be 3 µM.
For `Cc1cc(S(=O)(=O)Nc2ccccc2-c2ncco2)c(C)cc1Cl` [Example 77, 4-chloro-2,5-dimethyl-N-(2-(oxazol-2-yl)phenyl)benzenesulfonamide], the AC50 was over 100 µM.
For `Cc1cc(S(=O)(=O)Nc2csc(-c3ccccc3)n2)c(C)cc1Cl` [Example 81, 4-chloro-2,5-dimethyl-N-(2-phenylthiazol-4-yl)benzenesulfonamide], the AC50 turned out to be 3 µM.
For `Cc1cc(S(=O)(=O)Nc2cccc(-c3ncc(C(=O)O)s3)c2)c(C)cc1Cl` [Example 90, 2-(3-((4-chloro-2,5-dimethylphenyl)sulfonamido)phenyl) thiazole-5-carboxylic acid], the AC50 was over 100 µM.
For `Cc1cc(S(=O)(=O)Nc2ccc3ccn(C)c3c2)c(C)cc1Cl` [Example 72, 4-chloro-2,5-dimethyl-N-(1-methyl-1H-indol-6-yl)benzenesulfonamide], the half-maximal activity concentration (AC50) was determined as 37 µM.
Consider `Cc1cnc(-c2ccccc2NS(=O)(=O)c2cc(C)c(Cl)cc2C)s1` [Example 79, 4-chloro-2,5-dimethyl-N-(2-(5-methylthiazol-2-yl)phenyl)benzenesulfonamide], for which the AC50 was over 100 µM.
As for `Cc1nc2cccc(NS(=O)(=O)c3cc(C)c(Cl)cc3C)c2s1` [Example 85, 4-chloro-2,5-dimethyl-N-(2-methylbenzo[d]thiazol-7-yl)benzenesulfonamide], the AC50 is over 100 µM.
On to `Cc1cnc(-c2cccc(S(=O)(=O)Nc3cc(C)c(Cl)cc3C)c2)s1` [Example 78, N-(4-chloro-2,5-dimethylphenyl)-3-(5-methylthiazol-2-yl)benzenesulfonamide], for which the AC50 was over 100 µM.
In the case of `Cc1csc(-c2ccccc2NS(=O)(=O)c2cc(C)c(Cl)cc2C)n1` [Example 80, 4-chloro-2,5-dimethyl-N-(2-(4-methylthiazol-2-yl)phenyl)benzenesulfonamide] it was over 100 µM; in that of `Cc1nc2ccc(NS(=O)(=O)c3cc(C)c(Cl)cc3C)cc2s1` [Example 73, 4-chloro-2,5-dimethyl-N-(2-methylbenzo[d]thiazol-6-yl)benzenesulfonamide], 16 µM.
